{"source": "patent US20240174690A1", "about": "“ANNULATED 2-AMINO-3-CYANO THIOPHENES AND DERIVATIVES FOR THE TREATMENT OF CANCER” (BOEHRINGER INGELHEIM INTERNATIONAL GMBH, priority 2021, published 2024)", "key": {"LOVO cells": {"test_system": "LOVO cells", "assay": "LOVO CTG proliferation assay (120 h) (CRC, G13D)", "format": "cell-based", "conditions": "Homo sapiens, CTG 120 h", "outline": "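LOVO cells, 1000 per well in DMEM + 10% FCS, were plated overnight and then dosed with compound from DMSO stock. After 120 h at 37 °C, viability was read by CellTiter-Glo luminescence as a percentage of DMSO controls. IC50 was derived by four-parameter non-linear regression.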"}, "[1]": {"test_system": "KRAS G12V-dependent Ba/F3 cells", "assay": "Ba/F3 proliferation assay, KRAS G12V", "format": "cell-based", "conditions": "Mus musculus, BaF3, 72 h, AlamarBlue", "outline": "(§1)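 Ba/F3 cells were retrovirally transduced with KRAS G12 mutant vectors, puromycin-selected (1 μg/mL) and grown without IL-3 to make them KRAS-dependent. Compounds were tested in technical duplicates, viability was read by AlamarBlue fluorescence, and values came from curve fitting.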"}, "[2]": {"assay": "Metabolic (microsomal) stability assay, human liver microsomes (HLM)", "format": "in vitro ADME", "conditions": "predicted clearance as percent of liver blood flow, 1 μM", "outline": "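LC-MS/MS tracked parent disappearance at 0, 5, 15, 30 and 60 min in NADPH-initiated incubations with 1 mg/mL human microsomal protein and 1 μM compound at 37°C, pH 7.5. First-order fits gave intrinsic clearance, which was scaled up and reported as % QH. NADPH-free controls were also run.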"}, "[3]": {"test_system": "KRAS G12C-dependent Ba/F3 cells", "assay": "Ba/F3 proliferation assay, KRAS G12C", "format": "cell-based", "conditions": "Mus musculus, BaF3, 72 h, AlamarBlue", "outline": "as §1"}}}
{"molecule": "C[C@H](Oc1cc(-n2cc3ccn([C@@H](C)c4ccccn4)c(=O)c3n2)nc(-c2noc3c2CCC[C@@]32CCCc3sc(N)c(C#N)c32)n1)[C@@H]1CCCN1C", "note": "[II-205]", "values": [{"measurement": "IC50", "setting": "LOVO cells", "value": 22, "unit": "nM"}, {"measurement": "IC50", "setting": "[1]", "value": 6, "unit": "nM"}, {"measurement": "HLM QH", "setting": "[2]", "value": "<24", "unit": "%"}, {"measurement": "IC50", "setting": "[3]", "value": 19, "unit": "nM"}]}
{"molecule": "C[C@H](Oc1cc(-n2cc3ccn(C4CCOCC4)c(=O)c3n2)nc(-c2noc3c2CCC[C@@]32CCCc3sc(N)c(C#N)c32)n1)[C@@H]1CCCN1C", "note": "[II-206]", "values": [{"measurement": "IC50", "setting": "LOVO cells", "value": 31, "unit": "nM"}, {"measurement": "IC50", "setting": "[1]", "value": 3, "unit": "nM"}, {"measurement": "HLM QH", "setting": "[2]", "value": "<24", "unit": "%"}, {"measurement": "IC50", "setting": "[3]", "value": 7, "unit": "nM"}]}
{"molecule": "[2H]C([2H])([2H])N1C[C@H](F)C[C@H]1[C@H](C)Oc1cc(N2CCN(C([2H])([2H])[2H])C3(CC3)C2)nc(-c2noc3c2CCC[C@@]32CCCc3sc(N)c(C#N)c32)n1", "note": "[II-207]", "values": [{"measurement": "IC50", "setting": "LOVO cells", "value": 310, "unit": "nM"}, {"measurement": "IC50", "setting": "[1]", "value": 387, "unit": "nM"}, {"measurement": "HLM QH", "setting": "[2]", "value": 40, "unit": "%"}, {"measurement": "IC50", "setting": "[3]", "value": 283, "unit": "nM"}]}
{"molecule": "C[C@H](Oc1cc(-n2ccc(-c3cn(C4CCOCC4)nn3)n2)nc(-c2noc3c2CCC[C@@]32CCCc3sc(N)c(C#N)c32)n1)[C@@H]1CCCN1C", "note": "[II-210]", "values": [{"measurement": "IC50", "setting": "LOVO cells", "value": 35, "unit": "nM"}, {"measurement": "IC50", "setting": "[1]", "value": 2, "unit": "nM"}, {"measurement": "HLM QH", "setting": "[2]", "value": "<24", "unit": "%"}, {"measurement": "IC50", "setting": "[3]", "value": 2, "unit": "nM"}]}
{"molecule": "C[C@H](Oc1cc(-n2ccc(-c3cn([C@@H]4CCOC4)nn3)n2)nc(-c2noc3c2CCC[C@@]32CCCc3sc(N)c(C#N)c32)n1)[C@@H]1CCCN1C", "note": "[II-211]", "values": [{"measurement": "IC50", "setting": "LOVO cells", "value": 40, "unit": "nM"}, {"measurement": "IC50", "setting": "[1]", "value": 3, "unit": "nM"}, {"measurement": "HLM QH", "setting": "[2]", "value": "<24", "unit": "%"}, {"measurement": "IC50", "setting": "[3]", "value": 6, "unit": "nM"}]}
{"molecule": "C[C@H](Oc1cc(-n2ccc(-c3cn(CC4(C)COC4)nn3)n2)nc(-c2noc3c2CCC[C@@]32CCCc3sc(N)c(C#N)c32)n1)[C@@H]1CCCN1C", "note": "[II-213]", "values": [{"measurement": "IC50", "setting": "LOVO cells", "value": 117, "unit": "nM"}, {"measurement": "IC50", "setting": "[1]", "value": 6, "unit": "nM"}, {"measurement": "HLM QH", "setting": "[2]", "value": "<24", "unit": "%"}, {"measurement": "IC50", "setting": "[3]", "value": 11, "unit": "nM"}]}
